The results in this text go back to patent US9963464B2, “Macrocyclic compounds” (Bayer Pharma Aktiengesellschaft, priority 2014, dated 2018).

Read-outs that look alike come from different tables or passages of the source.

The target in one test is T1, CDK9/CycT1 (Homo sapiens, UniProt P50750).
T1 construct: Recombinant full-length His-tagged human CDK9 and CycT1; His; purchased Invitrogen PV4131; host or cells: insect cells
Kind of test: CDK9/CycT1 high ATP kinase assay (TR-FRET, Method 1b). Format: biochemical. The conditions noted are these: for IC50: Method 1b, 2 mM ATP; for Selectivity high ATP CDK9 over high ATP CDK2: IC50 (high ATP CDK2)/IC50 (high ATP CDK9): Methods 1b and 2b, minimal values where CDK9 IC50 is at the assay limit. How it is done:
1b. CDK9/CycT1 High ATP Kinase Assay
CDK9/CycT1-inhibitory activity of compounds of the present invention at a high ATP concentration after preincubation of enzyme and test compounds was quantified employing the CDK9/CycT1 TR-FRET assay as described in the following paragraphs.
Recombinant full-length His-tagged human CDK9 and CycT1, expressed in insect cells and purified by Ni-NTA affinity chromatography, were purchase from Invitrogen (Cat. No PV4131). As substrate for the kinase reaction biotinylated peptide biotin-Ttds-YISPLKSPYKISEG (C-terminus in amid form) was used which can be purchased e.g. from the company JERINI peptide technologies (Berlin, Germany). For the assay 50 nl of a 100 fold concentrated solution of the test compound in DMSO was pipetted into a black low volume 384 well microtiter plate (Greiner Bio-One, Frickenhausen, Germany), 2 μl of a solution of CDK9/CycT1 in aqueous assay buffer [50 mM Tris/HCl pH 8.0, 10 mM MgCl2, 1.0 mM dithiothreitol, 0.1 mM sodium ortho-vanadate, 0.01% (v/v) Nonidet-P40 (Sigma)] were added and the mixture was incubated for 15 min at 22° C. to allow pre-binding of the test compounds to the enzyme before the start of the kinase reaction. […] The concentration of CDK9/CycT1 was adjusted depending of the activity of the enzyme lot and was chosen appropriate to have the assay in the linear range, typical concentrations were in the range of 0.5 μg/mL. The reaction was stopped by the addition of 5 μl of a solution of TR-FRET detection reagents (0.2 μM streptavidine-XL665 [Cisbio Bioassays, Codolet, France] and 1 nM anti-RB(pSer807/pSer811)-antibody from BD Pharmingen [#558389] and 1.2 nM LANCE EU-W1024 labeled anti-mouse IgG antibody [Perkin-Elmer, product no. AD0077]) in an aqueous EDTA-solution (100 mM EDTA, 0.2% (w/v) bovine serum albumin in 100 mM HEPES pH 7.5).
The resulting mixture was incubated 1 h at 22° C. to allow the formation of complex between the phosphorylated biotinylated peptide and the detection reagents. Subsequently the amount of phosphorylated substrate was evaluated by measurement of the resonance energy transfer from the Eu-chelate to the streptavidine-XL. Therefore, the fluorescence emissions at 620 nm and 665 nm after excitation at 350 nm was measured in a HTRF reader, e.g. a Rubystar (BMG Labtechnologies, Offenburg, Germany) or a Viewlux (Perkin-Elmer). The ratio of the emissions at 665 nm and at […] was taken as the measure for the amount of phosphorylated substrate. The data were normalised (enzyme reaction without inhibitor=0% inhibition, all other assay components but no enzyme=100% inhibition).

The test system of another test is B16F10 cells. In words: Proliferation assay B16F10. It is filed as cell-based, mouse. The conditions noted are these: Mus musculus, B16-F10, 96 h; 4 days, crystal violet; read-out: Inhibition of B16F10 cell proliferation IC50. The protocol:
(§1) Cultivated tumour cells (HeLa, human cervical tumour cells, ATCC CCL-2; NCI-H460, human non-small cell lung carcinoma cells, ATCC HTB-177; A2780, human ovarian carcinoma cells, ECACC #93112519; DU 145, hormone-independent human prostate carcinoma cells, ATCC HTB-81; HeLa-MaTu-ADR, multidrug-resistant human cervical carcinoma cells, EPO-GmbH Berlin; Caco-2, human colorectal carcinoma cells, ATCC HTB-37; B16F10, mouse melanoma cells, ATCC CRL-6475) were plated at a density of 5,000 cells/well (DU145, HeLa-MaTu-ADR), 3,000 cells/well (NCI-H460, HeLa), 2,500 cells/well (A2780), 1,500 cells/well (Caco-2), or 1,000 cells/well (B16F10) in a 96-well multititer plate in 200 μL of their respective growth medium supplemented 10% fetal calf serum. After 24 hours, the cells of one plate (zero-point plate) were stained with crystal violet (see below), while the medium of the other plates was replaced by fresh culture medium (200 μl), to which the test substances were added in various concentrations (0 μM, as well as in the range of 0.001-10 μM). The cells were incubated for 4 days in the presence of test substances. Cell proliferation was determined by staining the cells with crystal violet: the cells were fixed by adding 20 μl/measuring point of an 11% glutaric aldehyde solution for 15 minutes at room temperature. After three washing cycles of the fixed cells with water, the plates were dried at room temperature. The cells were stained by adding 100 μl/measuring point of a 0.1% crystal violet solution (pH 3.0). After three washing cycles of the stained cells with water, the plates were dried at room temperature. The dye was dissolved by adding 100 μl/measuring point of a 10% acetic acid solution. The extinction was determined by photometry at a wavelength of 595 nm. The change of cell number, in percent, was calculated by normalization of the measured values to the extinction values of the zero-point plate (=0%) and the extinction of the untreated (0 μm) cells (=100%). The IC50 values (inhibitory concentration at 50% of maximal effect) were determined by means of a 4 parameter fit. Non-adherent MOLM-13 human acute myeloid leukemia cells (DSMZ ACC 554) were seeded at a density of 5,000 cells/well in a 96-well multititer plate in 100 μL of growth medium supplemented 10% fetal calf serum. After 24 hours, cell viability of one plate (zero-point plate) was determined with the Cell Titre-Glo Luminescent Cell Viability Assay (Promega), while 50 μL of test compound containing medium was added to the wells of the other plates (final concentrations in the range of 0.001-1 μM and DMSO controls). Cell viability was assessed after 72-hour exposure with the Cell Titre-Glo Luminescent Cell Viability Assay (Promega). IC50 values (inhibitory concentration at 50% of maximal effect) were determined by means of a 4 parameter fit on measurement data which were normalized to vehicle (DMSO) treated cells (=100%) and measurement readings taken immediately before compound exposure (=0%).

The next test concerns HeLa cells. In words: Proliferation assay HeLa. It is filed as cell-based, human. The note with it: 4 days, crystal violet, read-out: Inhibition of HeLa cell proliferation IC50. How it is done:
as §1

T1 sequence (P50750 whole entry): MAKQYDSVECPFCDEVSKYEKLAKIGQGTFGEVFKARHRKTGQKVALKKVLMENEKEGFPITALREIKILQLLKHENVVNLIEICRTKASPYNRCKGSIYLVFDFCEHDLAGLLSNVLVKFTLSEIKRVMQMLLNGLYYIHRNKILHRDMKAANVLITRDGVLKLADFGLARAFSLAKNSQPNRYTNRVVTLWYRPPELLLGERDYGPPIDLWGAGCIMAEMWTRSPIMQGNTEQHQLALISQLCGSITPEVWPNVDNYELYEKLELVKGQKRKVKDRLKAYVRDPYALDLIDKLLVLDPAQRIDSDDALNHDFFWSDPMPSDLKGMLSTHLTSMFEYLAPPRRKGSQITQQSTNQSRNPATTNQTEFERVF
T1 sequence (O60563 whole entry partner): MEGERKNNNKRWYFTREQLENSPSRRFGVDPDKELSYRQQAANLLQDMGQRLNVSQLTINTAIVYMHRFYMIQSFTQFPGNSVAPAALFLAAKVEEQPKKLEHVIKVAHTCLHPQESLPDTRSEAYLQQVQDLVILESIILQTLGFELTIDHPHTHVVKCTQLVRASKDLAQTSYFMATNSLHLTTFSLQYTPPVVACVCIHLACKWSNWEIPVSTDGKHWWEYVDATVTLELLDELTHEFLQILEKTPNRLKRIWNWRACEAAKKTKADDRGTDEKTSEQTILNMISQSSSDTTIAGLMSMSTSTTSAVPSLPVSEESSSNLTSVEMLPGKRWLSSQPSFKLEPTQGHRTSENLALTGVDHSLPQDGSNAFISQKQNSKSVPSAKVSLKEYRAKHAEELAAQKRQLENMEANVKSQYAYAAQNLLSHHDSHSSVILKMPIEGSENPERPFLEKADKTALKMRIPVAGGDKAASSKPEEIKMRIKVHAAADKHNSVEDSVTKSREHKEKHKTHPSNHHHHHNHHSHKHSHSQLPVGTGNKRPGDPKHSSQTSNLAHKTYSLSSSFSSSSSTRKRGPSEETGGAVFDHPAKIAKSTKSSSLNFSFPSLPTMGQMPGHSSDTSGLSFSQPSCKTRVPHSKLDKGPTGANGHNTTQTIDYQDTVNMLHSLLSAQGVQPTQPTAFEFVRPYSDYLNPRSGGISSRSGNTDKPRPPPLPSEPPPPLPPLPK

For the molecule `CS(=N)(=O)Cc1cc2cc(c1)OCCCCOc1cc(F)ccc1-c1nc(ncc1F)N2` (racemic) [Example 1, (rac)-16,20-Difluoro-9-[(S-methylsulfonimidoyl)methyl]-2,3,4,5-tetrahydro-12H-13,17-(azeno)-11,7-(metheno)-1,6,12,14-benzodioxadiazacyclononadecine], the IC50 at CDK9/CycT1 turned out to be 1.7 nM; in the test with B16F10 cells it was 14 nM; in the test with HeLa cells (Homo sapiens, HeLa, 96 h), 8 nM. The “Selectivity high ATP CDK9 over high ATP CDK2: IC50 (high ATP CDK2)/IC50 (high ATP CDK9)” value (shortened to “Selectivity high ATP CDK9”) on CDK9/CycT1 is given as 125.3.

As for `C[S+]([O-])Cc1cc2nc(c1)OCCCOc1cc(F)ccc1-c1cc(ncc1F)N2` (racemic) [Example 4, (rac)-15,19-Difluoro-8-[(methylsulfinyl)methyl]-3,4-dihydro-2H,11H-10,6-(azeno)-12,16-(metheno)-1,5,11,13-benzodioxadiazacyclooctadecine], the IC50 against CDK9/CycT1 turned out to be 1.6 nM; in the test with B16F10 cells, 14 nM; in the test with HeLa cells (Homo sapiens, HeLa, 96 h) it was 4 nM. For the same molecule, the “Selectivity high ATP CDK9” value at CDK9/CycT1 turned out to be 19.6.

With `CS(=N)(=O)Cc1cc2nc(c1)OCCCOc1cc(F)ccc1-c1cc(ncc1F)N2` (racemic) [Example 5, (rac)-15,19-Difluoro-8-[(S-methylsulfonimidoyl)methyl]-3,4-dihydro-2H,11H-10,6-(azeno)-12,16-(metheno)-1,5,11,13-benzodioxadiazacyclooctadecine], the IC50 came to 0.98 nM against CDK9/CycT1; 4 nM with B16F10 cells; 2 nM with HeLa cells (Homo sapiens, HeLa, 96 h). In addition, the “Selectivity high ATP CDK9” value on CDK9/CycT1 is listed as 20.8.

In the case of `C[S+]([O-])Cc1cc2nc(c1)OCCOc1cc(F)ccc1-c1cc(ncc1F)N2` (racemic) [Example 10, (rac)-14,18-difluoro-7-[(methylsulfinyl)methyl]-2,3-dihydro-10H-9,5-(azeno)-11,15-(metheno)-1,4,10,12-benzodioxadiazacycloheptadecine], the IC50 against CDK9/CycT1 stood at 27.8 nM; in the test on B16F10 cells it was 410 nM; in the test with HeLa cells (Homo sapiens, HeLa, 96 h), 195 nM. For the same molecule, on CDK9/CycT1, the “Selectivity high ATP CDK9” value worked out at 125.7.

Consider `CS(=N)(=O)Cc1cc2nc(c1)OCCOc1cc(F)ccc1-c1cc(ncc1F)N2` (racemic) [Example 11, (rac)-14,18-difluoro-7-[(S-methylsulfonimidoyl)methyl]-2,3-dihydro-10H-9,5-(azeno)-11,15-(metheno)-1,4,10,12-benzodioxadiazacycloheptadecine], for which the IC50 at CDK9/CycT1 turned out to be 3 nM; with B16F10 cells, 200 nM; with HeLa cells (Homo sapiens, HeLa, 96 h), 94 nM. At CDK9/CycT1, the “Selectivity high ATP CDK9” value is 702.

As for `C[S+]([O-])Cc1cc2nc(c1)OCCCCOc1cc(F)ccc1-c1cc(ncc1F)N2` (racemic) [Example 13, (rac)-16,20-difluoro-9-[(methylsulfinyl)methyl]-2,3,4,5-tetrahydro-12H-11,7-(azeno)-13,17-(metheno)-1,6,12,14-benzodioxadiazacyclononadecine], at CDK9/CycT1, the IC50 worked out at 3.2 nM and the “Selectivity high ATP CDK9” value was 35.3. In addition, in the test with B16F10 cells, the IC50 came out at 30 nM.

As to `CS(=N)(=O)Cc1cc2nc(c1)OCCCCOc1cc(F)ccc1-c1cc(ncc1F)N2` (racemic) [Example 14, (rac)-16,20-difluoro-9-[(S-methylsulfonimidoyl)methyl]-2,3,4,5-tetrahydro-12H-11,7-(azeno)-13,17-(metheno)-1,6,12,14-benzodioxadiazacyclononadecine], the IC50 is 3.6 nM on CDK9/CycT1; 22 nM in the test with B16F10 cells; 11 nM in the test on HeLa cells (Homo sapiens, HeLa, 96 h). Moreover, the “Selectivity high ATP CDK9” value on CDK9/CycT1 was 45.3.

For `CS(=N)(=O)Cc1cc2cc(c1)OCCCOc1cc(F)ccc1-c1nc(ncc1F)N2` (racemic) [Example 15, (rac)-15,19-difluoro-8-[(S-methylsulfonimidoyl)methyl]-3,4-dihydro-2H,11H-12,16-(azeno)-10,6-(metheno)-1,5,11,13-benzodioxadiazacyclooctadecine], the IC50 was 1.9 nM on CDK9/CycT1; 23 nM with B16F10 cells; 9 nM with HeLa cells (Homo sapiens, HeLa, 96 h). For the same molecule, at CDK9/CycT1, the “Selectivity high ATP CDK9” value is 123.6.

As for `CS(=O)(Cc1cc2cc(c1)OCCCOc1cc(F)ccc1-c1nc(ncc1F)N2)=NC(=O)C(F)(F)F` (racemic) [Example 16, (rac)-N-[{[15,19-difluoro-3,4-dihydro-2H,11H-12,16-(azeno)-10,6-(metheno)-1,5,11,13-benzodioxadiazacyclooctadecin-8-yl]methyl}(methyl)oxido-λ^6-sulfanylidene]-2,2,2-trifluoroacetamide], the IC50 at CDK9/CycT1 was 3.9 nM; in the test on B16F10 cells, 18 nM; in the test with HeLa cells (Homo sapiens, HeLa, 96 h) it was 10 nM. Besides, on CDK9/CycT1, the “Selectivity high ATP CDK9” value came out at 172.

Turning to `CS(=N)(=O)Cc1cc2nc(c1)OCCCOc1cc(F)ccc1-c1cc(ncc1F)N2` (single isomer, unassigned; enantiomer 1) [Example 6, 15,19-Difluoro-8-[(S-methylsulfonimidoyl)methyl]-3,4-dihydro-2H,11H-10,6-(azeno)-12,16-(metheno)-1,5,11,13-benzodioxadiazacyclooctadecine; Enantiomer 1], the IC50 at CDK9/CycT1 is 1.1 nM; with B16F10 cells, 7 nM; with HeLa cells (Homo sapiens, HeLa, 96 h), 31 nM. Also, the “Selectivity high ATP CDK9” value at CDK9/CycT1 is given as 35.4.

On to “({[15,19-difluoro-3,4-dihydro-2H,11H-10,6-(azeno)-12,16-(metheno)-1,5,11,13-benzodioxadiazacyclooctadecin-8-yl]methyl}sulfonyl)acetic acid [Example 27]”, for which the IC50 amounted to 1.7 nM against CDK9/CycT1 and 1050 nM in the test with HeLa cells. Further, on CDK9/CycT1, the “Selectivity high ATP CDK9” value is 3.7.
